* marks the point of attachment. X1 = Nc1ncnc2c1ncn2[C@@H]1O[C@H](C(=O)NCCNC(=O)CCN2C(=O)CC(*)C2=O)[C@@H](O)[C@H]1O
What was measured:
AurA [1] = target: T1, AurA (Homo sapiens, UniProt O14965); test: Lineweaver-Burk inhibition mechanism (IMAP TR-FRET, various ATP), AurA; assay type: biochemical; settings: Lineweaver-Burk plot, various concentrations of ATP
T1 construct: purchased Carna Bioscience
T1 sequence (O14965 1-403): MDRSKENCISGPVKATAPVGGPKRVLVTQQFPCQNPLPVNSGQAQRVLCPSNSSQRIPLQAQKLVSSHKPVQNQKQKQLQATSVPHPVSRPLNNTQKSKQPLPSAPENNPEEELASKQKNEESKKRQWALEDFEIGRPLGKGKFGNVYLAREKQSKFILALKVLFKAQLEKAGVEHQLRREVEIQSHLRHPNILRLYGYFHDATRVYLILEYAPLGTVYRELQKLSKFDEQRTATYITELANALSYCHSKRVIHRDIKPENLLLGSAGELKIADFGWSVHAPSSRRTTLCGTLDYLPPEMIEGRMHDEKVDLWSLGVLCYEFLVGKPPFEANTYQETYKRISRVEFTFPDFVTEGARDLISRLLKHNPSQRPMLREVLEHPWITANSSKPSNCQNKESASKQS
Excerpt: Inhibition Mechanism of Peptide inhibitor Bip-3 for Aurora-A
Lineweaver-Burk plots were generated by plotting the TR-FRET ratio values, which are proportional to reaction velocity in these conditions [8,9], as a function of the velocity versus ATP concentration ratio (v/[ATP]) at different concentrations of the peptide [19,20].

AurA [2] = target: T1, AurA; test: IMAP TR-FRET kinase inhibition assay, AurA; assay type: biochemical; settings: for IC50: FAM-Kemptide 1 µM, ATP 5 µM (Table S2; Figure 3 legend prints mM), TBS reaction buffer
[3] = tested on: phage infectivity of the host TG1 E. coli cells; test: Phage infectivity after chemical modification; settings: higher concentrations within 0.5–500 μM in PBS, room temperature, 2 h; P8-2KA phage clone
Method: Mild conditions are required for modification to minimize damage to phage clones so that they remain infectious to the host Escherichia coli cells.[[8a]] […] Phage clones (10^11 cfu) of P8‐2KA were treated with 200 μL of serially diluted maleimide‐PEG2‐biotin (0.5–500 μM) in PBS at room temperature for 2 h (Supporting Figure S3).
2. Chemical Modification of HLH peptide on Phage
All of the experiments were performed as described. 200 µL of phage (1012 cfu) was dissolved in PBS (pH 7.0), and 1 µL of 1 mM Maleimide-PEG2-biotin (EZ-Link® Maleimide-PEG2-Biotin, Thermo Scientific) was added and incubated for 2 hr at room temperature. To eliminate the residual reagents in phage solution, the treated solution was purified by ultrafiltration at 14,000 g for 20 min at 4 C by using Amicon® Ultra 0.5 mL Ultracel® 10K (Millipore). After discarding the flow-through, 200 µL of chilled PBST was added, and centrifugated as the same above. 100 µL of the chemically modified phage was added to Streptavidin High Capacity Coated Plate (SIGMA). Detection of phages was performed as described above by using Anti-M13 antibody conjugated with HRP.
3. The Infectivity of phages after Chemical Modification
All of the experiments were performed as described. […] Then the E. coli cells were inoculated onto LB/Agar containing 20 µg/mL chloramphenicol over night at 37°C, and colonies were counted. […]

G‐CSF‐R [4] = settings: ref [2e] El-Haggar et al., Bioorg. Med. Chem. Lett. 2010; cited from earlier work
Excerpt: Mild conditions are required for modification to minimize damage to phage clones so that they remain infectious to the host Escherichia coli cells.[[8a]]

anti‐E‐tag antibody = test: Phage ELISA, anti-E-tag antibody; assay type: binding; settings: phage clone displaying P8-2KA, 10^10 cfu; HRP anti-M13, OD490
Method: (§1) All of the experiments were performed as described . In this study, the insert fragment encoding of helix-loop- helix (HLH) peptide P8-2KA and phage clone displaying no peptide were prepared. With regard to clone P8-2KA, the insert fragment was initially prepared by overlap extension PCR using P8-2KA 1 fwd and P8-2KA 1 rev. After purification of the fragment, restriction site SfiI and E-tag epitope were introduced by the following PCR using Sfi- YT1- CD 2 fwd and Etag- linker 2 rev, and the product was purified. The fragment was fused with the pIII gene amplified by the two primers prepcr and Sfi2fo with the template fdg3p0ss21, and a fragment encoding P8- 2KA- fused pIII was prepared as described. After digestion of the fragment by SfiI and the succeeding purification, the fragment was ligated with fdg3p0ss21-stop which was digested with the same restriction enzyme. As a negative control, we also prepared a clone displaying no HLH peptide on phage. To prepare the phage clone, only linker primer was used in the PCR together with Sfi2fo and the pIII gene amplified from the template fdg3p0ss21 as described above. […]
(§2) […] After was hing the wells with PBST 10 times, 100 µL of HRP Anti-M13 antibody conjugated (1:4000) was added, and the OD490 values were measured after adding o-phenylene diamine ([…] OPD, SIGMA) and adding 50 µL of

BSA = test: Phage ELISA, BSA; assay type: binding; settings: phage clone displaying P8-2KA, 10^10 cfu; HRP anti-M13, OD490
Method: as §1, §2

G‐CSF‐R [5] = test: Phage ELISA, G-CSF-R; assay type: binding; settings: phage clone displaying P8-2KA, 10^10 cfu; HRP anti-M13, OD490
Method: as §1, §2

KDR (VEGF receptor) = test: Phage ELISA, KDR; assay type: binding; settings: phage clone displaying P8-2KA, 10^10 cfu; HRP anti-M13, OD490
Method: as §1, §2

[6] = tested on: AurA, AurB, AurC, PAK4, Erk2, PKACα, and Src; test: IMAP TR-FRET kinase selectivity panel; assay type: biochemical; settings: 5 μM Bip-3-Adc vs AurA
Method: Figure 3 Inhibitory activities of the selected peptide Bip‐3 and the adenosine‐tethering peptide Bip‐3‐Adc for AurA. (a) The structure of synthesized Bip‐3‐Adc, Bip‐3, and the original HLH peptide YT1. (b) The CD spectra of 20 μM Bip‐3 and YT1 measured in TBS at 20 °C. (c) The binding activity of Bip‐3 to immobilized AurA as determined by SPR experiments (TBS, 0.005 % P‐20, 25 °C). (d) Dose‐dependent inhibitory activities of Bip‐3 and Bip‐3‐Adc for AurA measured using an IMAP® TR‐FRET assay. Inhibition of AurA was determined at 100 ng/mL AurA, 1 mM 5FAM‐Kemptide, 5 mM ATP, in TBS reaction buffer. (e) Inhibitory activities of 5 μM Bip‐3‐Adc for AurA, AurB, AurC, PAK4, Erk2, PKACα, and Src, determined using the IMAP® TR‐FRET assay.
CD spectra were recorded in TBS at overall peptide concentration of 20 μM on a J-820 spectrometer at 20°C (PTC-423L thermostat, Jasco). The peptide concentrations were determined by measuring absorbance of aromatic residues of peptide dissolved in 6 M Gdn•HCl at UV 280 nm[14].
9. Surface Plasmon Resonance […]
denaturation of AurA, measurements were performed without regeneration of the sensor chip surface at each cycle, and any cycles were started after complete dissociation of analytes from the sensor chip. […] The concentration of adenosine-labeled peptide was determined by using the molar extinction coefficient of adenosine, and aromatic residues at UV 260 […]

Circular dichroism = assay type: physicochemical; settings: CD, 20 μM peptide in TBS, 20 °C; compared with YT1
Aurora kinase A (AurA) = target: T2, Aurora kinase A (AurA) (Homo sapiens, UniProt O14965); test: SPR
T2 chain: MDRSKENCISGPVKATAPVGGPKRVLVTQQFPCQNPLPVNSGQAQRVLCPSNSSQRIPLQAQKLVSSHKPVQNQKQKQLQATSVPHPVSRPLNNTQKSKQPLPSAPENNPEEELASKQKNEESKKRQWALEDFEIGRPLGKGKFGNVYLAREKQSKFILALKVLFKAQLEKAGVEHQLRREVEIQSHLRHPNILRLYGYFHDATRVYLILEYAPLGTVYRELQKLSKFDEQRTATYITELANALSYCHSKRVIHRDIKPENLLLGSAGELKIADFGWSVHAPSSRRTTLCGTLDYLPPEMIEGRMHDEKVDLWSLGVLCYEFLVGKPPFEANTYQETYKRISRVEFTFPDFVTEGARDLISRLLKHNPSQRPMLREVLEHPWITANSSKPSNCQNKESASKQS

[7] = 100 ng/mL AurA, 1 hr, room temperature

Nc1ncnc2c1ncn2[C@@H]1O[C@H](CO)[C@@H](O)[C@H]1O [adenosine]
mode of inhibition with respect to ATP (AurA [1]): competitive inhibition for ATP
IC50 (AurA [2]; [7]): 0.474 mM

O=C(CCCC[C@@H]1SC[C@@H]2NC(=O)N[C@@H]21)NCCOCCOCCNC(=O)CCN1C(=O)C=CC1=O [maleimide‐PEG2‐biotin]
phage infectivity of TG1 E. coli cells [3]: small loss of phage infectivity

AELAALEAELAALE‐G7‐KLAALKAKLAALKAY [YT1]
inhibitory activity for AurA (AurA [2]; [7]): no inhibitory activity

CDGGSGGGS‐AELAALEAELAALE‐G7‐KLAMLKLKLAELKRY [P8‐2KA]
Kd (G‐CSF‐R [4]): 0.214 µM
binding to anti-E-tag antibody (anti‐E‐tag antibody): bound to anti‐E‐tag antibody
binding to BSA (BSA): no binding was observed
binding to G-CSF-R (G‐CSF‐R [5]): selective binding
binding to KDR (KDR (VEGF receptor)): no binding was observed

H-C(X1)DGGSGGGSAELAALEAELAALEGGGGGGGKLEYLKWKLWPLKGW-NH2 [Bip‐3‐Adc]
mode of inhibition with respect to ATP (AurA [1]): uncompetitive inhibition
fold difference in IC50 (inhibition of AurA) vs Bip-3 (AurA [2]; Bip-3-Adc vs Bip-3 (IC50 103 μM)): 13 fold
fold difference in IC50 (inhibition of AurA) vs adenosine (AurA [2]; Bip-3-Adc vs adenosine (IC50 474 μM)): 62 fold
kinase selectivity [6]: highest inhibitory activity and remarkable selectivity for AurA

H-CDGGSGGGSAELAALEAELAALEGGGGGGGKLEYLKWKLWPLKGW-NH2 [Bip‐3]
mode of inhibition with respect to ATP (AurA [1]): mixed inhibition
α-helical content (Circular dichroism): high α‐helical content comparable with that of the original peptide YT1
IC50 (AurA [2]; [7]): 0.103 mM

B1: Bip-3 (peptide)
chain: CDGGSGGGSAELAALEAELAALEGGGGGGGKLEYLKWKLWPLKGW
Kd (Aurora kinase A (AurA)): 13.7 µM

— article PMC9297947 (Chembiochem, 2021)
